Data published in ChEMBL document CHEMBL3632523, “Evaluation of Improved Glycogen Synthase Kinase-3α Inhibitors in Models of Acute Myeloid Leukemia” (J Med Chem, 2015).
In brackets after ≈: the same amount, converted by molar mass. Activity calls are given as the source filed them. No cut-off for these calls is given here.

How the values were obtained:
[1] = biological target: T1, Glycogen synthase kinase-3 alpha (Homo sapiens, UniProt P49840); conditions: NB-4, 5 to 10 uM
Target sequence in this assay (P49840 2-483 limits assumed): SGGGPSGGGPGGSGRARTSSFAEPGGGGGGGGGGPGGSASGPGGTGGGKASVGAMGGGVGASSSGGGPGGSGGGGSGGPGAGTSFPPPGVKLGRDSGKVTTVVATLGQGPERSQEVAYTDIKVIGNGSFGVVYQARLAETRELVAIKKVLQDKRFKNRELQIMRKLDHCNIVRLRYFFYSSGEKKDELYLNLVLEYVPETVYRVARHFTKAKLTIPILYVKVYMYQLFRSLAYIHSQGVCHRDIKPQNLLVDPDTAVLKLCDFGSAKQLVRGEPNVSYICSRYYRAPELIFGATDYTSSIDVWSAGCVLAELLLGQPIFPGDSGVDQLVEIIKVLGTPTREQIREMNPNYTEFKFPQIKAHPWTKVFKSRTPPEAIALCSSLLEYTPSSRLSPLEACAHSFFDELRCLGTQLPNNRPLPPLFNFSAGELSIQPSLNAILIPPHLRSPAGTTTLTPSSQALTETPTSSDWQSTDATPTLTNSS
Description: Inhibition of GSK-3 alpha in human NB4 cells assessed as CD11c expression at 5 to 10 uM after 6 days by flow cytometry

[2] = biological target: T1, Glycogen synthase kinase-3 alpha; conditions: NB-4, 5 to 10 uM; remark: listed apart in the source
Target sequence in this assay (P49840 2-483 limits assumed): as above
Description: Inhibition of GSK-3 alpha in human NB4 cells assessed as CD11b expression at 5 to 10 uM after 6 days by flow cytometry

[3] = biological target: T1, Glycogen synthase kinase-3 alpha; conditions: NB-4, 5 to 10 uM; remark: listed apart in the source
Target sequence in this assay (P49840 2-483 limits assumed): as above
Description: Inhibition of GSK-3 alpha in human NB4 cells assessed as increased vacuolization at 5 to 10 uM after 6 days by May-Grunwald Giemsa staining based light microscopy

[4] = biological target: Glycogen synthase kinase-3 beta (Homo sapiens, UniProt P49841)
Sequence of Glycogen synthase kinase-3 beta (P49841 whole entry): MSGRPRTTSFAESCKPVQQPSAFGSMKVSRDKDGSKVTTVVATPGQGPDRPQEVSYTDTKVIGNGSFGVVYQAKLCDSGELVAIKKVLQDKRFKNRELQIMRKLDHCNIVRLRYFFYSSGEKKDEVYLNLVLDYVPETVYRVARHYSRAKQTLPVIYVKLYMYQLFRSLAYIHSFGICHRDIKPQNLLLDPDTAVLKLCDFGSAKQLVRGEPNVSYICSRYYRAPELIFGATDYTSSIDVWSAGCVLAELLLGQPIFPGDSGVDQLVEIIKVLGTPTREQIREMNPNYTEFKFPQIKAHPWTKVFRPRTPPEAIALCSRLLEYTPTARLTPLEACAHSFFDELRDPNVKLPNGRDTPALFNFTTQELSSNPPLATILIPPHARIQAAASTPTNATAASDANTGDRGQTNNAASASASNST

[5] = biological target: T1, Glycogen synthase kinase-3 alpha; conditions: HL-60, 5 to 10 uM
Target sequence in this assay (P49840 2-483 limits assumed): as the sequence (P49840 2-483 limits assumed) above
Description: Inhibition of GSK-3 alpha in human HL-60 cells assessed as CD14 expression at 5 to 10 uM after 6 days by flow cytometry

[6] = biological target: T1, Glycogen synthase kinase-3 alpha; conditions: HL-60, 5 to 10 uM; remark: listed apart in the source
Target sequence in this assay (P49840 2-483 limits assumed): as above
Description: Inhibition of GSK-3 alpha in human HL-60 cells assessed as CD11c expression at 5 to 10 uM after 6 days by flow cytometry

Danio rerio [7] = assay: Toxicity in wild type zebrafish embryo in E3 medium assessed as induction of lethality treated at <60 uM dosed 24 hrs of post fertilization observed on 96 to 120 hrs of post fertilization; format: organism-based; conditions: in vivo
[8] = biological target: T1, Glycogen synthase kinase-3 alpha; conditions: NB-4, 5 to 10 uM; remark: listed apart in the source
Target sequence in this assay (P49840 2-483 limits assumed): as above

[9] = Aqueous solubility of the compound in water by HPLC based shake flask method; format: physicochemical
Danio rerio [10] = assay: Induction of morphological abnormality wild type zebrafish embryo in E3 medium assessed as stunted and crooked tail phenotype at >30 uM dosed 24 hrs of post fertilization; format: functional, organism-based
[11] = biological target: T1, Glycogen synthase kinase-3 alpha; conditions: HL-60, 5 to 10 uM; remark: listed apart in the source
[12] = biological target: T1, Glycogen synthase kinase-3 alpha
Target sequence in this assay (P49840 whole entry): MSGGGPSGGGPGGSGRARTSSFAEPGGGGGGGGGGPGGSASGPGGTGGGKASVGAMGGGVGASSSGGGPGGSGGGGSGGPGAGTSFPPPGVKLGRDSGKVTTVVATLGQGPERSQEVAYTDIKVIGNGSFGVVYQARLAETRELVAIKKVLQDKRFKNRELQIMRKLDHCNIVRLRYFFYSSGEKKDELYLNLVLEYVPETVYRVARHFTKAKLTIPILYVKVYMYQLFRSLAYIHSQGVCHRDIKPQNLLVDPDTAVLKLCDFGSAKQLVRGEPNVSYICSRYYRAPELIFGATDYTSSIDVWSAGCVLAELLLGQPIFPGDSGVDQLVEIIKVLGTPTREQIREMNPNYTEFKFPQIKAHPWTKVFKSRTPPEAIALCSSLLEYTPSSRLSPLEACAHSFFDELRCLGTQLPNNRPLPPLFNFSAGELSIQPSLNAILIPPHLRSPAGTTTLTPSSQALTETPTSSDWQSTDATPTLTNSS

[13] = biological target: T1, Glycogen synthase kinase-3 alpha; conditions: NB-4, 5 to 10 uM; remark: listed apart in the source
Description: Inhibition of GSK-3 alpha in human NB4 cells assessed as decreased nuclear to cytoplasmic ratio at 5 to 10 uM after 6 days by May-Grunwald Giemsa staining based light microscopy

[14] = biological target: T1, Glycogen synthase kinase-3 alpha; conditions: HL-60, 5 to 10 uM; remark: listed apart in the source
Description: Inhibition of GSK-3 alpha in human HL-60 cells assessed as increased vacuolization at 5 to 10 uM after 6 days by May-Grunwald Giemsa staining based light microscopy

[15] = biological target: T1, Glycogen synthase kinase-3 alpha; conditions: HL-60, 5 to 10 uM; remark: listed apart in the source
Description: Inhibition of GSK-3 alpha in human HL-60 cells assessed as CD11b expression at 5 to 10 uM after 6 days by flow cytometry

[16] = biological target: T1, Glycogen synthase kinase-3 alpha; conditions: HL-60, 5 to 10 uM; remark: listed apart in the source
Description: Inhibition of GSK-3 alpha in human HL-60 cells assessed as decreased nuclear to cytoplasmic ratio at 5 to 10 uM after 6 days by May-Grunwald Giemsa staining based light microscopy

[17] = biological target: T1, Glycogen synthase kinase-3 alpha; conditions: NB-4, 5 to 10 uM; remark: listed apart in the source
Description: Inhibition of GSK-3 alpha in human NB4 cells assessed as CD14 expression at 5 to 10 uM after 6 days by flow cytometry

Danio rerio [18] = assay: Inhibition of embryonic development in wild type zebrafish embryo in E3 medium assessed as beta catenin activation at >30 uM dosed 24 hrs of post fertilization; format: functional, organism-based
Danio rerio [19] = assay: Induction of morphological abnormality in wild type zebrafish embryo in E3 medium at 1 to 15 uM dosed 24 hrs of post fertilization; format: functional, organism-based
Sus scrofa [20] = species on record: Sus scrofa; conditions: 100 nM
Sus scrofa [21] = species on record: Sus scrofa; conditions: 100 nM; remark: listed apart in the source
Danio rerio [22] = assay: Induction of morphological abnormality in wild type zebrafish embryo in E3 medium dosed 24 hrs of post fertilization; format: functional, organism-based

NC(=O)c1cc(F)ccc1-c1ccc(CSc2nnc(-c3ccc4c(c3)OCCO4)o2)cc1
inhibition [1]: Active | inhibition [2]: Active | inhibition [3]: Active | IC50 [4]: 140 nM | inhibition [5]: Active | inhibition [6]: Active | Activity (Danio rerio [7]): Non-toxic | inhibition [8]: Active | solubility thermodynamic [9]: 73 µM (≈ 33.8 µg/mL) | Activity (Danio rerio [10]): Active | inhibition [11]: Active | IC50 [12]: 42 nM | inhibition [13]: Active | inhibition [14]: Active | inhibition [15]: Active | inhibition [16]: Active | inhibition [17]: Active | Activity (Danio rerio [18]): Active | Activity (Danio rerio [19]): inactive

Cc1ccc(-c2ccc(CSc3nnc(-c4ccc5c(c4)OCCO5)o3)cc2)nc1
solubility thermodynamic [9]: 1 µM (≈ 0.417 µg/mL)

Cc1ccc(-c2ccc(CSc3nnc(-c4ccc5c(c4)OCCO5)o3)cc2)cn1
solubility thermodynamic [9]: < 1 µM

N#Cc1cc(F)ccc1-c1ccc(CS(=O)(=O)c2nnc(-c3ccc4c(c3)OCCO4)o2)cc1
inhibition (Sus scrofa [20]): 0% | inhibition (Sus scrofa [21]): 0%

Fc1ccc(-c2ccc(CSc3nnc(-c4ccc5c(c4)OCCO5)o3)cn2)cn1
solubility thermodynamic [9]: 1 µM (≈ 0.422 µg/mL)

N#Cc1ccc(-c2ccc(CSc3nnc(-c4ccc5c(c4)OCCO5)o3)cc2)cn1
solubility thermodynamic [9]: 50 µM (≈ 21.4 µg/mL)

N#Cc1cc(F)ccc1-c1ccc(CSc2nnc(-c3ccc4c(c3)OCCO4)o2)cc1
solubility thermodynamic [9]: 1 µM (≈ 0.445 µg/mL)

Fc1ccc(-c2ccc(CSc3nnc(-c4ccc5c(c4)OCCO5)o3)cc2)cn1
solubility thermodynamic [9]: 17 µM (≈ 7.16 µg/mL)

N#Cc1ccc(-c2ccc(CSc3nnc(-c4ccc5c(c4)OCCO5)o3)cc2)nc1
Activity (Danio rerio [7]): Non-toxic | solubility thermodynamic [9]: 181 µM (≈ 77.6 µg/mL) | Activity (Danio rerio [22]): inactive
